Changes are numbered by the printed parent chain. Where two headings read alike, the source gives them in different places.
Experiments:
PC3 cell line = experiment: Activity in the PC3 cell line; type: cell-based; conditions: off-target effects; result in words
AR-LBD = molecular target: T1, AR-LBD (Rattus norvegicus, UniProt P15207); experiment: Androgen displacement assay (Polar Screen Androgen Receptor Competitor Green Assay Kit, FluormoneAL Green); type: binding; conditions: for % Displacement (1 μM) / % Displacement (10 μM): Table 1
T1 construct: displace a fluorescent-tagged androgenic ligand (FluormoneAL Green) from the AR-LBD; purchased
T1 sequence (P15207 651-882 limits assumed): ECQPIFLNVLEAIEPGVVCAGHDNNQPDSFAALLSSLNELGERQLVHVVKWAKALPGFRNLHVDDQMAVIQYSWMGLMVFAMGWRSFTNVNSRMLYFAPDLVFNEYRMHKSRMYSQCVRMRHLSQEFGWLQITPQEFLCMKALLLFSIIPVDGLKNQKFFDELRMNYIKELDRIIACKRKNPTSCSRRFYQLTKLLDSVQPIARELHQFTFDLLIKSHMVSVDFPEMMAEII
Method: Androgen displacement was assessed with the Polar Screen Androgen Receptor Competitor Green Assay Kit as per the instructions of the manufacturer.

full-length AR [1] = molecular target: T2, full-length AR (Homo sapiens, UniProt P10275, T878A); experiment: eGFP AR transcriptional assay in LNCaP cells; type: cell-based; conditions: for eGFP FL (12 μM) / IC50: LNCaP-eGFP; for eGFP FL (12 μM): Supplementary Table 1; for inhibition of AR-FL expression at 12 μM: result in words; for IC50: read-out: estimated IC50, AR-FL transcriptional activity (eGFP)
T2 construct: endogenous in cells; host or cells: LNCaP with AR2PB-eGFP reporter
T2 sequence (P10275 1-920 T878A): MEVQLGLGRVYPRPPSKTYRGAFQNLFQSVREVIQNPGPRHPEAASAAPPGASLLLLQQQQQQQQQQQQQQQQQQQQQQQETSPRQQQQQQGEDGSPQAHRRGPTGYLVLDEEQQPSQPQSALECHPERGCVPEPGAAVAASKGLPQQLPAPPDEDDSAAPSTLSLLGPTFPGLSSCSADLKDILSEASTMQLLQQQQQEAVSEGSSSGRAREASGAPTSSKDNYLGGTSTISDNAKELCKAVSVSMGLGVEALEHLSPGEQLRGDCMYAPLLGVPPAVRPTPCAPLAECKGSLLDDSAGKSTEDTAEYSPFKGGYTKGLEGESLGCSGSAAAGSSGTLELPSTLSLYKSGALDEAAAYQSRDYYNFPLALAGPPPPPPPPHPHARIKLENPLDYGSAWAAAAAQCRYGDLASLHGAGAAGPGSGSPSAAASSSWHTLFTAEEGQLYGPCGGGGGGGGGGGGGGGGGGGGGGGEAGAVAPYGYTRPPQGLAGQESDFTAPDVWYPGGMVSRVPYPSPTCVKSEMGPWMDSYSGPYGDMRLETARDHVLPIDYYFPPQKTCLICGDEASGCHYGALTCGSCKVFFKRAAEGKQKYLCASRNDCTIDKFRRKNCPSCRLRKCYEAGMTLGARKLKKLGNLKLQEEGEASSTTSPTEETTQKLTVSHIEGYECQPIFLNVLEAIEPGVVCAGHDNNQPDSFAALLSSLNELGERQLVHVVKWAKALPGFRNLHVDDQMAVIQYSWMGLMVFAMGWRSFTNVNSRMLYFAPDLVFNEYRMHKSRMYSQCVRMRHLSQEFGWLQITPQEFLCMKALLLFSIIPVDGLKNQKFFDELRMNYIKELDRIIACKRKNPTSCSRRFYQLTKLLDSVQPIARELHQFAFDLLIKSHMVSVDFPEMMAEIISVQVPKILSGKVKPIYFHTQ
Method: In addition, these compounds were also tested for their ability to inhibit full-length AR transcriptional activity in LNCaP cells using an enhanced green fluorescent protein (eGFP) AR transcriptional assay, where the expression of eGFP is under the direct control of an androgen-responsive probasin-derived promoter.
(§1) LNCaP cells incorporating an AR2PB-eGFP reporter construct (2 × probasin) are previously described. eGFP and secreted PSA assays were performed as described. The mammalian two-hybrid assay was performed in PC3 cells by co-transfection of 15 ng pA-AR or pB-AR plasmids, with 12.5 ng PG5-NLuc reporter. PC3_iV7_3TKNluc or PC3_iNluc cells were seeded in DMEM +5% CSS at 5000 cells/well for 24 h, followed by adding doxycycline/compounds (18 h) and luminescence measurement. LNCaP and 22rv1 cells were starved in RPMI + CSS (48 h) before cell viability tests using the same conditions as above, followed by 30 μL/well PrestoBlue™ Reagent (1 h) and fluorescence measurement (TECAN F200).

[2] = tested on: prostate-specific antigen (PSA); experiment: Secreted PSA production in LNCaP cells; type: cell-based; conditions: Homo sapiens, read-out: IC50, secreted PSA levels
Method: To further validate compounds as AR inhibitors, we tested their activity by quantifying the effect on the production of endogenous prostate-specific antigen (PSA) in PCa cell lines. PSA is an AR-regulated serine protease and is widely used as a biomarker for PCa.
as §1

[3] = tested on: PC3-dox inducible luciferase cell line; experiment: Nanoluc counterscreen in PC3-dox inducible luciferase cell line; type: cell-based; conditions: Supplementary Table 1
Excerpt: (§2) Compounds were first screened for their inhibition of AR-V7 transcriptional activity. To do so, we created a PC3 cell-based population that stably encodes (i) a doxycycline-inducible AR-V7 cDNA sequence (pLIX402 tet-inducible promoter, puromycin selection), and (ii) the ARR3tk-nanoLuciferase reporter construct. […] This allowed the screening of the compounds without using the error-prone method of transiently transfecting V7 and reporter constructs. The inhibition efficacy of compounds was measured using doxycycline treatment along with an increasing dose of compounds. From this screen, a panel of compounds was identified with some anti-dimerization activity (Supplementary Table S1). […] To rule out direct effects of the compounds on luciferase expression or PC3 cell viability, we used a PC3-dox inducible luciferase cell line in parallel.
as §1, with “The mammalian two-hybrid assay was performed in PC3 cells by co-transfection of 15 ng pA-AR or pB-AR plasmids, with 12.5 ng PG5-NLuc reporter.” left out

AR-V7 = molecular target: T3, AR-V7 (Homo sapiens, UniProt P10275); experiment: AR-V7 transcriptional activity, doxycycline-inducible AR-V7 with ARR3tk-nanoLuciferase reporter in PC3 cells; type: cell-based; conditions: for IC50: PC3 doxycycline-inducible AR-V7, ARR3tk-nanoLuciferase reporter, read-out: IC50 for the inhibition of the AR-V7 transcription; for inhibition at 10 µM: PC-3, Supplementary Table 1, read-out: Inhibition Dox-V7 (10 μM)
T3 construct: expressed in transfected cells
T3 sequence (P10275 1-644 isoform P10275-3): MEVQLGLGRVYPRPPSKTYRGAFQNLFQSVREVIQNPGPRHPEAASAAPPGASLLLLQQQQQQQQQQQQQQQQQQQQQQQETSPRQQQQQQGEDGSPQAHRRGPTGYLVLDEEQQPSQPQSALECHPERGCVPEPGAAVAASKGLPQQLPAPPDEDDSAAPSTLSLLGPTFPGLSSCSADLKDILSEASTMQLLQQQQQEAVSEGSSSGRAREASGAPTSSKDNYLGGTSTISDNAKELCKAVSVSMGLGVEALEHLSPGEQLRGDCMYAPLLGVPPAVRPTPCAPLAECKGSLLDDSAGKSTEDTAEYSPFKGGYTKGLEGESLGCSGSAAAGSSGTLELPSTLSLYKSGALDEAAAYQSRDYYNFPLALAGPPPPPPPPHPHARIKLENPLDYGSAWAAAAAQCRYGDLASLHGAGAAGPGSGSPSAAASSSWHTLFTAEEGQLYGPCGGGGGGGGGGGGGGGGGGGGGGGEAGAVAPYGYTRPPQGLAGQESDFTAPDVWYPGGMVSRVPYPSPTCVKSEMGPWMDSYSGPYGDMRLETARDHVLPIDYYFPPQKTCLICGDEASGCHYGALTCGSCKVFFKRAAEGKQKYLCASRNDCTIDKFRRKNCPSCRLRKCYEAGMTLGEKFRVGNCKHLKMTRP
Excerpt: as §2, §1

LNCaP cells = experiment: Cell viability (PrestoBlue), LNCaP; type: cell-based; conditions: for growth inhibition of LNCaP cell line: result in words
Method: (§3) VPC-17160 and VPC-17281 were further evaluated for their potential to inhibit the growth of prostate cancer cell lines LNCaP (AR-FL dependent) and 22rv1 (AR-V7 dependent).
as §1

22rv1 cells = experiment: Cell viability (PrestoBlue), 22rv1; type: cell-based; conditions: for growth inhibition of 22rv1 cell line: result in words
Method: as §3, §1

[4] = Metabolic stability in human microsomes; type: in vitro ADME
Excerpt: We then tested the metabolic stability of these molecules using human microsomes. […] This could explain the lower potency of this compound in cell growth assays, as it is metabolized quickly in the media.

full-length AR [5] = molecular target: T4, full-length AR (Homo sapiens, UniProt P10275); experiment: Mammalian two-hybrid (M2H) AR dimerization assay in PC3 cells; type: cell-based; conditions: result in words
T4 construct: Full-length AR cDNA were cloned using Polymerase Incomplete Primer Extension; expressed in transfected cells; host or cells: PC3 (transient co-transfection of pA-AR, pB-AR and PG5-NLuc)
T4 sequence (P10275 1-920): T2 sequence (P10275 1-920 T878A) with A878T
Method: Next, the dimerization of full-length AR was assessed by a mammalian two-hybrid (M2H, [30]) assay, where target proteins were fused with Gal4-DBD or VP16 domains. […] High concentrations of VPC-17005 (>20 μM) were required for significant reduction in AR and AR-V7 homo-dimerization.
Figure 3 Anti-dimerization effects of VPC-17160 and VPC-17281 at 20 μM concentraction. PC3 cells were co-transfected with plasmids encoding pA-AR and pB-AR and pG5-NLuc-Gal4 specific reporter. Cells were treated with 0.1% DMSO control, VPC-17160, VPC-17281, or VPC-17005 followed by Nanoluciferase measurement. p < 0.05 (*), p < 0.01 (**) were considered statistically significant (two-tailed t-test). Two-tailed t-test for VPC-17005 vs. 17160 p < 0.05; VPC-17005 vs. VPC-17281 p < 0.05.
Full-length human AR (hARWT) was encoded on pcDNA3.1 expression plasmid. […]
as §1, with “The mammalian two-hybrid assay was performed in PC3 cells by co-transfection of 15 ng pA-AR or pB-AR plasmids, with 12.5 ng PG5-NLuc reporter.” left out

[6] = microsomal stability, Table 1, read-out: Half-Life
[7] = read-out: half-life in microsomes (T1/2)

| Structure (SMILES) | effect on the PC3 cell line (PC3 cell line) | % Displacement (1 μM) (AR-LBD) | % Displacement (10 μM) (AR-LBD) | eGFP FL (12 μM) (full-length AR [1]) | inhibition of AR-FL expression at 12 μM (full-length AR [1]) | IC50 (full-length AR [1]) | IC50 [2] | Nanoluc Counterscreen (10 μM) [3] | IC50 (AR-V7) | inhibition at 10 µM (AR-V7) | growth inhibition of LNCaP cell line (LNCaP cells) | growth inhibition of 22rv1 cell line (22rv1 cells) | half-life [4, 6] | half-life [4, 7] | reduction of dimerization at 20 μM (full-length AR [5]) | hormone displacement at 50 μM (AR-LBD; high concentrations (50 μM), result in words) | IC50 (LNCaP cells; Homo sapiens, LNCaP (AR-FL dependent), read-out: IC50, cell growth) | IC50 (22rv1 cells; Homo sapiens, 22rv1 (AR-V7 dependent), read-out: IC50, cell growth) |
| --- | --- | --- | --- | --- | --- | --- | --- | --- | --- | --- | --- | --- | --- | --- | --- | --- | --- | --- |
| O=C(NCc1cccc2ccccc12)NCC(O)(c1cccs1)c1cccs1 [VPC-17160] | no effect | 10% | 29% | 76 | significant inhibition | 2 µM | 2 µM | 20% | 6 µM | 70% | inhibited the growth | inhibited the growth | 3 min | 3 min | full reduction of dimerization |  |  |  |
| CC(O)(CNC(=O)C=Cc1ccnc2ccccc12)c1ccsc1 (stereo not shown) [VPC-17281] | some activity | 0% | 0% | 100 | significant inhibition | 5 µM | 6 µM | 10% | 6 µM | 70% | inhibited the growth | inhibited the growth | 90 min | > 90 min | full reduction of dimerization | no significant hormone displacement | 25 µM | 10 µM |
| CNC(=O)c1ccc(N2C(=S)N(c3ccc(C#N)c(C(F)(F)F)c3)C(=O)C2(C)C)cc1F [Enzalutamide, reference compound] |  |  |  |  |  |  |  |  |  |  |  |  | > 1000 min |  |  |  |  |  |

— paper PMC7958344, “Development of Novel Inhibitors Targeting the D-Box of the DNA Binding Domain of Androgen Receptor” (International Journal of Molecular Sciences, 2021)
